± gives the expanded uncertainty stated by the source.
details: 313.15 K; Liquid; Closed cell (Static) method

| vapor or sublimation pressure | Structure (SMILES) |
| --- | --- |
| 12.95 ± 0.031 kPa | CC(C)CC(C)(C)C [2,2,4-trimethylpentane] |
| 2.483 ± 0.015 kPa | CCCCO [butan-1-ol] |
| 44.98 ± 0.2 kPa | C=CCCCC [hex-1-ene] |

Source: the NIST ThermoML archive (doi:10.1016/j.jct.2013.04.003)
